Laboratory results taken from US11925656B2, “Biological total joint replacement” (priority 2014, dated 2024).
Entries after “also recorded” stand apart in the source; their conditions may differ.

Assays:
MMP-13 = MMP-13 in synovium by ELISA, rabbit surgically induced knee arthritis; type: in vivo; conditions: vs untreated control, not statistically significant
From the text: (§1) The study was approved by the Institutional Animal Care and Use Committee (IACUC) of Thomas D. Morris, Inc. 28 New Zeeland White rabbits were selected for the study. Six such were randomly assigned to one of four groups; prophylactic cyanidin-3-glycoside (C3G)(referred to figures as Cl 1-42), prophylactic protocatechuic acid (PCA)(referred to in figures as PCA 1-42), therapeutic C3G (referred to in figures as Cl 42-70), and therapeutic PCA (referred to in figures as PCA 42-70). There were four controls, two each to the prophylactic and therapeutic groups.
(§2) The prophylactic groups were given PROC3G™ by Chromadex™ at a dose of 30 mg/kg of body weight of either C3G or PCA by mouth, 7 times per week for 42 days. The therapeutic groups' treatment was initiated on day 42 with a daily dose of PROC3G™ by Chromadex™ 7 times per week for 4 weeks. The dose of 30 mg of cyanidin-3-glucoside per kg of body weight calculates to be 0.177 millimoles per kg body weight. The dose of PCA was the same in terms of millimoles per kg body weight.
(§3) The experimental rabbits underwent surgery with an intent to create a severe degenerative arthritis by cutting the medial collateral ligament, the anterior cruciate ligament and removing the medial meniscus. A partial thickness laceration was made longitudinally on the lateral femoral condyle for future assessment of potential for repair. The surgery was performed by two licensed veterinarians. One surgeon was very experienced. The other surgeon was a recent graduate.
(§4) At necropsy, the synovial fluid was harvested percutaneously and upon arthrotomy. The synovium was harvested from posterior compartment. The patella and adjacent synovium was procured as a separate specimen as was the medial and lateral condyle.
(§5) The synovial fluid and half of the synovium was frozen and sent to BioBoston Laboratory for chemical analysis. The other half of the synovium and bone was sent to McClinchery Histology in Stockbridge, Mich. for histological preparation and staining. Patellar slides were sent to BioBoston Contract Laboratories for histochemical staining and ICRS grading. Sample slides were examined for Lubricin at Myron Spector laboratory.
(§6) Synovial Tissue (Synovium)—Detected by ELISA

MMP3 = MMP3 in synovial fluid by ELISA, rabbit arthritis model; type: in vivo; conditions: therapeutic groups, oral days 42-70, vs control
From the text: as §1
(§7) The prophylactic groups were given PROC3G™ by Chromadex™ at a dose of 30 mg/kg of body weight of either C3G or PCA by mouth, 7 times per week for 42 days. The therapeutic groups' treatment was initiated on day 42 with a daily dose of PROC3G™ by Chromadex™ 7 times per week for 4 weeks. The dose of 30 mg of cyanidin-3-glucoside per kg of body weight calculates to be 0.177 millimoles per kg body weight. The dose of PCA was the same in terms of millimoles per kg body weight. […]
MMP3 is known as matrix metallopeptidase 3, or stromelysin 1 or progelatinase. […] See FIG. 2C. • Synovial Tissue (Synovium)—Detected by ELISA • MMP-3 levels were reduced in all four groups. See FIG. 9B. • Synovial Tissue (Synovium)—Gene Expression Level Detected by Real-Time PCR • MMP-3 gene expression was decreased in all groups. […]

MMP-3 = MMP-3 expression in cartilage, histochemical staining and scoring, rabbit arthritis model; type: in vivo
From the text: as §1, §2, §3, §4, §5
MMP3 is known as matrix metallopeptidase 3, or stromelysin 1 or progelatinase. Proteins of the matrix metalloproteinase (MMP) family are involved in the breakdown of 20 extracellular matrix in normal physiological processes, such as embryonic development, reproduction, and tissue remodeling, as well as in disease processes, such as arthritis and metastasis. […] See FIG. 2C. • Synovial Tissue (Synovium)—Detected by ELISA • MMP-3 levels were reduced in all four groups. See FIG. 9B. • Synovial Tissue (Synovium)—Gene Expression Level Detected by Real-Time PCR • MMP-3 gene expression was decreased in all groups. See FIG. 13A. • Histochemical Scoring Analysis

TNF-alpha = TNF-alpha in synovial fluid by ELISA, rabbit arthritis model; type: in vivo; conditions: therapeutic groups, oral 4 weeks, vs control; not statistically significant
From the text: as §1, §2
(§8) The experimental rabbits underwent surgery with an intent to create a severe degenerative arthritis by cutting the medial collateral ligament, the anterior cruciate ligament and removing the medial meniscus. […]
(§9) Synovial Fluid—Detected by ELISA

ADAMTS-5 = ADAMTS-5 in synovial fluid by ELISA, rabbit arthritis model; type: in vivo; conditions: therapeutic groups, oral days 42-70, vs control
From the text: as §1, §2, §3, §4
(§10) The synovial fluid and half of the synovium was frozen and sent to BioBoston Laboratory for chemical analysis. The other half of the synovium and bone was sent to McClinchery Histology in Stockbridge, Mich. for histological preparation and staining. […]
as §9

lubricin [1] = experiment: Lubricin in synovium by ELISA, rabbit arthritis model; type: in vivo; conditions: prophylactic groups, oral days 1-42, vs control
From the text: as §1, §2, §3, §4, §10, §6

IL-1 beta = IL-1 beta in synovium by ELISA, rabbit arthritis model; type: in vivo; conditions: therapeutic groups, oral days 42-70, vs control
From the text: as §1, §7
Interleukin-1 beta (IL-1p) also known as catabolic, is a cytokine protein. […] Increased production of IL-1B causes a number of different auto-inflammatory syndromes. • Synovial Fluid—Detected by ELISA • Levels of IL-1 beta were decreased in all groups. See FIG. 2A. • Synovial Tissue (Synovium)—Detected by ELISA

ADAMTS-5 gene expression = ADAMTS-5 gene expression in synovium by real-time PCR, rabbit arthritis model; type: in vivo; conditions: therapeutic groups, oral days 42-70, vs control
From the text: as §1, §2, §8
Synovial Tissue (Synovium)—Gene Expression Level Detected by Real-Time PCR

IGF-1 gene expression = IGF-1 gene expression in synovium by real-time PCR, rabbit arthritis model; type: in vivo; conditions: rabbits, either oral or intraarticular route
From the text: as §1, §7
See FIG. 5B. • Synovial Tissue (Synovium)-Detected by ELISA • IGF-1 was increased in all groups. See FIG. 8B. • Synovial Tissue (Synovium)-Gene Expression Level Detected by Real-Time PCR • IGF-1 was increased in all groups.

collagen II = experiment: Collagen II expression in cartilage, immunohistochemical staining, rabbit arthritis model; type: in vivo; conditions: prophylactic, minimum of 30 mg/kilo gram body weight by oral route, compared to the controls
From the text: as §1, §2
as §3, with “The surgery was performed by two licensed veterinarians. One surgeon was very experienced. The other surgeon was a recent graduate.” left out

lubricin [2] = experiment: Lubricin expression in cartilage, immunohistochemical staining, rabbit arthritis model; type: in vivo; conditions: prophylactic, minimum of 30 mg/kilo gram body weight by oral route, compared to the controls
From the text: as §1, §2
as §3, with “The surgery was performed by two licensed veterinarians. One surgeon was very experienced. The other surgeon was a recent graduate.” left out

aggrecan = experiment: Aggrecan expression in patellar cartilage, rabbit arthritis model; type: in vivo; conditions: prophylactic, minimum of 30 mg/kilo gram body weight by oral route, compared to the controls
From the text: as §1, §2
as §3, with “The surgery was performed by two licensed veterinarians. One surgeon was very experienced. The other surgeon was a recent graduate.” left out

[3] = test system: patellar articular cartilage; experiment: ICRS histological visual scale scoring of patellar cartilage, rabbit arthritis model; type: in vivo; conditions: prophylactic, minimum of 30 mg/kilo gram body weight by oral route
From the text: International Cartilage Repair Society (ICRS) criteria are described for example in Hoemann, et al., (cited on Applicant's IDS), herein incorporated by reference.
as §1, §2, §8

lymphocytes = experiment: Number of lymphocytes in synovial fluid, rabbit arthritis model; type: in vivo
From the text: as §1, §2, §3, §4
In addition to testing for the increase or decrease of various factors and cytokines, tests were run to count the number of white blood cells, including polymorphonuclear leukocytes (PMN), macrophages (Mac) and lymphocytes (Lym). […]

IGF-1 = IGF-1 in plasma, rabbit arthritis model; type: in vivo; conditions: for IGF-1 in the plasma: control group 25 PG/ML
From the text: as §1, §2, §3
Blood testing was performed prior to necropsy on C3G, PCA, glucose, MMP-3 and IGF-1 to assess any systemic effects.

C-reactive protein (CRP) = C-reactive protein (CRP) in plasma after knee surgery; type: in vivo, rabbit
Method: C-reactive protein (CRP) is a protein found in the blood plasma, the levels of which rise in response to inflammation (i.e., C-reactive protein is an acute-phase protein). Its physiological role is to bind to phosphocholine expressed on the surface of dead or dying cells (and some types of bacteria) in order to activate the complement system via the C1Q complex. CRP rises within two hours of the onset of inflammation, up to a 50,000-fold, and peaks at 48 hours. […] CRP is thus a screen for inflammation.
Knee surgery was performed to create a severe irreparable degenerative knee joint, which in turn elevated the CRP in the plasma to average of […]. A historical normal amount of CRP is 3.15 micrograms/mL. See Sun H, et al., Am J Pathol. October 2005; 167(4): 1139-1148. Rabbit CRP levels are close to the mean values of healthy middle-aged humans (2.82 mg/L) reported in the literature. See Ockene I S, et al., Clin Chem. 2001; 47:444-450.
The controls in the study were animals that had surgery and received no treatment. The prophylaxis test groups had the surgery and received 6 weeks of oral C-3-G or PCA 7 times per week as described in example 1. The therapeutic treatment group had surgery, received no treatment for 41 days and then at day 42 received oral C-3-G or PCA 7 times per week as described in example 1.

[4] = test system: catabolic cytokine environment; experiment: Cytokine environment in surgically created arthritic knee; type: in vivo; conditions: rabbits, either oral or intraarticular route
[5] = more powerful than vitamin E; cited from earlier work
[6] = human; cited from earlier work
human osteoblasts = conditions: in vitro, dose related; cited from earlier work
[7] = test system: human mesenchymal stem cells; conditions: in vitro, dose related; cited from earlier work
human synovial explants = conditions: PCA directly applied; cited from earlier work
MRSA and Pseudomonas = conditions: tape-stripped rodent backs contaminated with MRSA and Pseudomonas; cited from earlier work
[8] = prophylactic groups, oral days 1-42
[9] = prophylactic groups, oral days 1-42, vs control
[10] = therapeutic groups, oral days 42-70
[11] = therapeutic groups, oral days 42-70, vs control

Structure (SMILES): O=C(O)c1ccc(O)c(O)c1 [PCA, Protocatechuic acid (3,4-dihydroxybenzoic acid)]
- MMP-13 levels in synovium (MMP-13; prophylactic groups, oral 7 times per week days 1-42 (C3G 30 mg/kg, PCA 26.4 mg/kg)): very slightly decreased
- MMP-13 levels in synovium (MMP-13; therapeutic groups, oral 7 times per week days 42-70 (C3G 30 mg/kg, PCA 26.4 mg/kg)): increased slightly
- MMP3 in synovial fluid (MMP3): decreased
- histochemical staining for the presence of MMP-3 in cartilage (MMP-3; [8]): no staining
- MMP-3 expression in cartilage (MMP-3; [9]): reduced
- histochemical staining for the presence of MMP-3 in cartilage (MMP-3; [10]): no staining
- MMP-3 expression in cartilage (MMP-3; [11]): reduced
- TNF-alpha levels in synovial fluid (TNF-alpha): slight increase
- ADAMTS-5 in synovial fluid (ADAMTS-5): decreased
- lubricin in synovium (lubricin [1]): increased
- levels of IL-1 beta in synovium (IL-1 beta): decreased
- ADAMTS-5 gene expression in synovium (ADAMTS-5 gene expression): decreased
- IGF-1 genetic expression in the synovium (IGF-1 gene expression): increase
- type II collagen in articular cartilage ECM (collagen II): increased
- lubricin on the articular cartilage surface (lubricin [2]): increased
- aggrecan in articular cartilage ECM (aggrecan): increased
- articular cartilage cells ([3]; compared to the controls): unchanged in nature and spacing
- subchondral bone structure ([3]; without sclerosis or osteophyte formation): remained normal in structure
- number of lymphocytes in synovial fluid (lymphocytes; [9]): decreased
- number of lymphocytes in synovial fluid (lymphocytes; [11]): decreased
- IGF-1 in the plasma, change vs control (IGF-1; prophylactic group, oral days 1-42, only group with an increase): increased
- IGF-1 in the plasma (IGF-1; [8]): 43.0 pg/mL
- IGF-1 in the plasma (IGF-1; [10]): 29.0 pg/mL
- CRP, an indicator of inflammation (C-reactive protein (CRP); given by oral route immediately after injury): kept to normal levels
- plasma CRP level (C-reactive protein (CRP); prophylaxis test group, 6 weeks oral treatment from surgery, untreated control at 42 days 8.8 mg/mL): 3.6 micrograms/mL
- plasma CRP level (C-reactive protein (CRP); therapeutic group, no treatment for 6 weeks after surgery, then 4 weeks oral treatment): 43 mg/mL
- catabolic cytokine environment in a surgically created arthritic knee [4]: reversing
- antioxidant power relative to vitamin E [5]: 10 ×
- toxicity [6]: non-toxic; also recorded: no known human toxic effects
- bone making markers in human osteoblasts (human osteoblasts): produce bone making markers
- bone making markers in human mesenchymal stem cells [7]: produce bone making markers
- IGF-1 in human synovial explants (human synovial explants): increased
- collagen layer in the dermis (MRSA and Pseudomonas): production of collagen layer in the dermis
- re-epithelialization of the skin wound (MRSA and Pseudomonas): re-epithelialization of the wound
- time to disinfect the wound (MRSA and Pseudomonas): 2 days
